Patent publication US11319321B2, “[1,2,4]triazolo[1,5-a]pyrimidine compounds as PDE2 inhibitors” (Janssen Pharmaceutica NV, priority 2016, dated 2022)
Like-named read-outs stand apart in the source and are kept apart here.

Experiments:
[1] = target: T1, Human recombinant PDE2A (hPDE2A) (Homo sapiens, UniProt O00408); assay: In vitro assay PDE2A (SPA, 3H-cGMP); format: biochemical
T1 construct: made in house; host or cells: Sf9 insect cells (baculovirus)
Description: Human recombinant PDE2A (hPDE2A) was expressed in Sf9 cells using a recombinant rPDE10A baculovirus construct. Cells were harvested after 48 h of infection and the hPDE2A protein was purified by metal chelate chromatography on Ni-sepharose 6FF. Tested compounds were dissolved and diluted in 100% DMSO to a concentration 100 fold of the final concentration in the assay. Compound dilutions (0.4 μl) were added in 384 well plates to 20 μl of incubation buffer (50 mM Tris pH 7.8, 8.3 mM MgCl2, 1.7 mM EGTA). 10 μl of hPDE2A enzyme in incubation buffer was added and the reaction was started by addition of 10 μl substrate to a final concentration of 10 μM cGMP and 0.01 μCi ^3H-cGMP. The reaction was incubated for 45 minutes at room temperature. […] After sedimentation of the beads during 30 minutes the radioactivity was measured in a Perkin Elmer Topcount scintillation counter and results were expressed as cpm. For blanc values the enzyme was omitted from the reaction and replaced by incubation buffer. Control values were obtained by addition of a final concentration of 1% DMSO instead of compound.

hPDE3B = assay: In vitro assay PDE3 (SPA, 3H-cAMP); format: biochemical, human; details: 0.4 μM cAMP substrate; for hPDE3B Emax: in % (unit assumed)
hPDE10A2 = hPDE10A2 (Homo sapiens, UniProt Q9Y233); assay: biochemical; details: 60 nM cAMP substrate; for IC50: human clone, read-out: hPDE10A2 or rPDE10A2 pIC50 (converted); for Emax: read-out: hPDE10A2 or rPDE10A2 Emax, human clone
Description: (§1) Rat recombinant PDE10A (rPDE10A2) was expressed in Sf9 cells using a recombinant rPDE10A baculovirus construct. Cells were harvested after 48 h of infection and the rPDE10A protein was purified by metal chelate chromatography on Ni-sepharose 6FF. Tested compounds were dissolved and diluted in 100% DMSO to a concentration 100 fold of the final concentration in the assay. Human recombinant PDE10A ([…]) was expressed in Sf9 cells using a recombinant hPDE10A baculovirus that was made and amplified in house. Cells were harvested after 72 h of infection and the hPDE10A protein was purified by metal chelate chromatography on Ni-sepharose. Compound dilutions (0.4 μl) were added in 384 well plates to 20 μl of incubation buffer (50 mM Tris pH 7.8, 8.3 mM MgCl2, 1.7 mM EGTA). 10 μl of rPDE10A or hPDE10A enzyme in incubation buffer was added and the reaction was started by addition of 10 μl substrate to a final concentration of 60 nM cAMP and […] ^3H-cAMP. The reaction was incubated for 60 minutes at room temperature. After incubation, the reaction was stopped with 20 μl of stop solution consisting of 17.8 mg/ml PDE SPA (scintillation proximity assay) beads. After sedimentation of the beads during 30 minutes the radioactivity was measured in a Perkin Elmer Topcount scintillation counter and results were expressed as cpm. For blanc values the enzyme was omitted from the reaction and replaced by incubation buffer. Control values were obtained by addition of a final concentration of 1% DMSO instead of compound. A best fit curve is fitted by a minimum sum of squares method to the plot of % of control value substracted with blanc value versus compound concentration and the half maximal inhibitory concentration (IC50) value is derived from this curve.

PDE2A = target: T2, PDE2A (Rattus norvegicus, UniProt Q01062); assay: PDE2 occupancy by ex-vivo autoradiography with [3H]B-17a; format: in vivo; details: read-out: PDE2 occupancy at 10 mg/kg
T2 construct: Twenty μm-thick striatal sections were cut; from tissue; host or cells: rat brain, striatal sections
T2 sequence (Q01062 1-928): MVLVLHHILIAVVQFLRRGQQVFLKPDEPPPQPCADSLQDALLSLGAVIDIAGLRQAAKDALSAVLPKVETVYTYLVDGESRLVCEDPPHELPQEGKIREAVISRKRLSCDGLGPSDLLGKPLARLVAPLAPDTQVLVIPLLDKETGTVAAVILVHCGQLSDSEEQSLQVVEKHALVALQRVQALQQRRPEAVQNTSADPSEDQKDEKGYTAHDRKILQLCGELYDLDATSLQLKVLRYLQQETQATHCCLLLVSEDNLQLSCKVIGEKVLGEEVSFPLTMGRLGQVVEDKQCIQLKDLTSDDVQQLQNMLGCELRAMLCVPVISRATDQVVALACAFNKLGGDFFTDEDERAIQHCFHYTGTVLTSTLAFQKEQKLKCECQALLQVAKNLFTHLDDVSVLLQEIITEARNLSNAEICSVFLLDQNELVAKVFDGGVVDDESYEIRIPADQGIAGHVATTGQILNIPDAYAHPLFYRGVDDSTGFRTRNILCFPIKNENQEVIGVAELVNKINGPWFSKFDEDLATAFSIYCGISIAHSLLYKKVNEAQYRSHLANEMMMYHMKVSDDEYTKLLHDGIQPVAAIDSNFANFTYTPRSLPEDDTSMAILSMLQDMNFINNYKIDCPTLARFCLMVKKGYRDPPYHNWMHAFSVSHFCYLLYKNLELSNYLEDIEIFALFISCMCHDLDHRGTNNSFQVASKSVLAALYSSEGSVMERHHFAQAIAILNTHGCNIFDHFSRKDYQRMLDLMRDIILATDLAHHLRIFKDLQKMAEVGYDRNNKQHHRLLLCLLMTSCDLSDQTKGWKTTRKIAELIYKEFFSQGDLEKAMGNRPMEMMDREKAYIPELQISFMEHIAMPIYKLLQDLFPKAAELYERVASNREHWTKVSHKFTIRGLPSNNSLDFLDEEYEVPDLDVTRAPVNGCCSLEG
Description: Brains were immediately removed from the skull and rapidly frozen in dry-ice cooled 2-methylbutane (−40° C.).
After thawing, sections were dried under a cold stream of air and incubated for one minute with 30 nM [^3H]B-17a in Tris-HCl (50 mM, pH7.4) containing 0.3% BSA. Brain sections from drug-treated and vehicle-treated animals were incubated in parallel. […] After incubation, the excess of [^3H]B-17a was washed off in ice-cold buffer 2 times 10 minutes, followed by a quick dip in distilled water. The sections were then dried under a stream of cold air.
Brain sections were loaded in a […] (Biospace, Paris) for 4 h and radioactivity emerging from delineated brain area was quantified using the Beta vision program (Biospace, Paris). Specific binding was determined as the difference between total binding in the striatum and non-specific binding in the cerebellum. Percentage receptor occupancy of the drug administered to the animal corresponded to 100% minus the percentage receptor labeled in the treated animal. For the determination of ED50-values, the percentage of receptor occupancy was plotted against dose and the sigmoidal log dose-effect curve of best fit was calculated by non-linear regression analysis, using the GraphPad Prism program.

rPDE10A2 = target: T3, rPDE10A2 (Rattus norvegicus, UniProt Q9QYJ6); assay: In vitro assay PDE10A, rat clone (SPA, 3H-cAMP); format: biochemical; details: for IC50: rat clone (r), 60 nM cAMP substrate, read-out: hPDE10A2 or rPDE10A2 pIC50 (converted); for Emax: read-out: hPDE10A2 or rPDE10A2 Emax
T3 construct: made in house; host or cells: Sf9 insect cells (baculovirus)
T3 sequence (Q9QYJ6 1-794): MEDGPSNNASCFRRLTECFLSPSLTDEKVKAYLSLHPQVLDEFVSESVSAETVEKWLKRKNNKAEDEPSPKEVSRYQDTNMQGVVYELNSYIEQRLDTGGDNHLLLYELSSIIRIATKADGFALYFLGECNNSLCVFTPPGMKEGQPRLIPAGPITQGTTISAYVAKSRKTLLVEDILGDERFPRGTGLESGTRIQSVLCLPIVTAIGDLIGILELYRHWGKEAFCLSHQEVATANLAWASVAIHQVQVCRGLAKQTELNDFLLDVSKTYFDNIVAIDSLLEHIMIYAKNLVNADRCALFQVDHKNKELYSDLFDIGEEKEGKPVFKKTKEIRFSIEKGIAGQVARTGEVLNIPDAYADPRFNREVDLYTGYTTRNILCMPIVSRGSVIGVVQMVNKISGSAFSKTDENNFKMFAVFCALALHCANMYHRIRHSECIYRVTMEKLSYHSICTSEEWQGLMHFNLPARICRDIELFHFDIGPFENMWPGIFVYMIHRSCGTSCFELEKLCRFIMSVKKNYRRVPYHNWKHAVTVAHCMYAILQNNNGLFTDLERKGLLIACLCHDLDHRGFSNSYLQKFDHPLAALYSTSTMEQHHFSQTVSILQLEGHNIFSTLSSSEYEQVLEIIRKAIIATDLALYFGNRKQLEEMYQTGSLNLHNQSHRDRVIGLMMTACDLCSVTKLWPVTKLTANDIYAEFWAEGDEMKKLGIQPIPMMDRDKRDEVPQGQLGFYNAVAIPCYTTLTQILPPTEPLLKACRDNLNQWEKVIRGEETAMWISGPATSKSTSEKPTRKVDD
Description: as §1

[2] = hPDE2A pIC50, 10 μM cGMP substrate

T1 sequence (O00408 whole entry): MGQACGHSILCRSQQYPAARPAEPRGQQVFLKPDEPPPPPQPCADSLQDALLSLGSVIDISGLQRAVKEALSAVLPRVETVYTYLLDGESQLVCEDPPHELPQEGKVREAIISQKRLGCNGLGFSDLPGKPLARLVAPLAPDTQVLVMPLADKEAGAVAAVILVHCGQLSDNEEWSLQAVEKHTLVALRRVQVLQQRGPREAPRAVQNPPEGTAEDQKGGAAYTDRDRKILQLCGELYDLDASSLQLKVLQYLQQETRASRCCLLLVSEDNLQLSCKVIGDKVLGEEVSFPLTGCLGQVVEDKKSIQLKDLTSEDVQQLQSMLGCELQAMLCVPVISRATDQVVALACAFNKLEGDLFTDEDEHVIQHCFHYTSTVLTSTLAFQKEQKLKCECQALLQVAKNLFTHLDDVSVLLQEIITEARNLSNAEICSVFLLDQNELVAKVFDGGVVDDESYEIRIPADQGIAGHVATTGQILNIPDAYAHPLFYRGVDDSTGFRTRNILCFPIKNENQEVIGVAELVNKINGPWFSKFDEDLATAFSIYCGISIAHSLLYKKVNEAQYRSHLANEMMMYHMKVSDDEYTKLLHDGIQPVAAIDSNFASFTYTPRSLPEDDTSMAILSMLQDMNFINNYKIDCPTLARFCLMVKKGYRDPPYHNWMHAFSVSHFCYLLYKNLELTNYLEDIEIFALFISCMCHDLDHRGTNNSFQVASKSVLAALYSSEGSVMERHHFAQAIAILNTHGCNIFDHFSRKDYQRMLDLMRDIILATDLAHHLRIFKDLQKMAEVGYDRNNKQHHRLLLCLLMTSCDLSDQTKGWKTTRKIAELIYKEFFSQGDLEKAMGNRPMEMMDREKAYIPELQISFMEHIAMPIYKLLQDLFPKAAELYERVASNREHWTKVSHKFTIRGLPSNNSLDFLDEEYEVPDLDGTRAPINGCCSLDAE
hPDE10A2, sequence (Q9Y233 267-1055): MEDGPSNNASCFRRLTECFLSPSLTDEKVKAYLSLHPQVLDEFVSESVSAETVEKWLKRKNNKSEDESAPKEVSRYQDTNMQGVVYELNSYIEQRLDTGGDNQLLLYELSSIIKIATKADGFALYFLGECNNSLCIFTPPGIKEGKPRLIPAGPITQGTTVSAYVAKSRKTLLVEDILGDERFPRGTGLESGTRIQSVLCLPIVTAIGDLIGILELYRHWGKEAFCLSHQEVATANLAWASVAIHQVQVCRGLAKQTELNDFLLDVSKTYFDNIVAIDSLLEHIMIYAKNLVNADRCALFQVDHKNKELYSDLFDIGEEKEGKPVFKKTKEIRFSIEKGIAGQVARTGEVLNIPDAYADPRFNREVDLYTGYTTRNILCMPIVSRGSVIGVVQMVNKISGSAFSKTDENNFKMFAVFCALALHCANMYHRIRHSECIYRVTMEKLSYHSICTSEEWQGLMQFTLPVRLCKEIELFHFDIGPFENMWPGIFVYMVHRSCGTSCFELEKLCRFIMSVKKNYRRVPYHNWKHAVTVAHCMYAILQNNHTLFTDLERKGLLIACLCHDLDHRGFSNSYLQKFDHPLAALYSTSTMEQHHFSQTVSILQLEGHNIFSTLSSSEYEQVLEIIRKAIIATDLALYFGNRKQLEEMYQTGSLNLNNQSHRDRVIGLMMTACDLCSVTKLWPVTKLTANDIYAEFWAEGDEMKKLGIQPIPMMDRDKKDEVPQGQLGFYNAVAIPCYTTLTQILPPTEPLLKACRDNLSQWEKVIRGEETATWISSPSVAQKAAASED

Structure (SMILES) | Emax ([1]; 10 μM cGMP substrate) | IC50 ([1]; 10 μM cGMP substrate, read-out: hPDE2A pIC50 (converted)) | hPDE3B pIC50 (hPDE3B) | hPDE3B Emax (hPDE3B) | IC50 (hPDE10A2) | Emax (hPDE10A2) | receptor occupancy at 10 mg/kg (PDE2A; po) | IC50 [1, 2] | melting point | IC50 (rPDE10A2) | Emax (rPDE10A2) | IC50 [1] | receptor occupancy at 10 mg/kg (PDE2A; male Wistar rats, 10 mg/kg SC (subcutaneous), striatum, percentage occupancy)
Cc1cc([C@@H](C)N2CC[C@@H](C)[C@H](c3cc(C(F)F)nc4ncnn34)C2)cc(C2CC2)n1 (relative stereo) [Compound 3] | 100% | 0.0135 µM | <5 | 19 | 1.26 µM | 91% | 21% | – | – | – | – | – | –
C[C@@H]1CCN(Cc2cccc(N3CCCCC3)n2)C[C@H]1c1cc(C(F)F)nc2ncnn12 [Compound 17] | 100% | – | <5 | 41 | > 10 µM | 49% | – | 0.195 µM | 137.52 °C | – | – | – | –
FC(F)c1cc(C2CCCN(Cc3cc4ccccc4o3)C2)n2ncnc2n1 (centres unmarked) [Compound 37] | 81% | – | 5.92 | 88 | – | – | – | 0.2 µM | – | 1.05 µM | 50.7% | – | –
Cc1cc(CN2CC[C@@H](C)[C@H](c3cc(C(F)F)nc4ncnn34)C2)cc(C)n1.Cl [Compound 33] | 96% | – | <5 | 8 | 4.07 µM | 72% | – | – | – | – | – | 0.0224 µM | 37%
C[C@@H]1CCN(Cc2ccc3nccn3c2)C[C@H]1c1cc(C(F)F)nc2ncnn12 [Compound 34] | 91% | – | <5 | 18 | 4.68 µM | 67% | 0% | – | – | – | – | 0.0229 µM | –
Cc1cc(C(C)N2CC[C@@H](C)[C@H](c3cc(C(F)F)nc4ncnn34)C2)cc(C)n1 (single isomer, unassigned) [Compound 1a, 5-(difluoromethyl)-7-[(3 S,4R)-1-[(1R*)-1-(2,6-dimethyl-4-pyridyl)ethyl]-4-methyl-3-piperidyl]-[1,2,4]triazolo[1,5-a]pyrimidine] | 99% | – | <5 | 34 | 5.62 µM | 64% | – | 0.102 µM | 141.46 °C | – | – | – | –
Cc1cc(CN2CC[C@@H](C)[C@H](c3cc(C(F)F)nc4ncnn34)C2)cc(C)c1Cl.Cl [Compound 36] | 100% | – | – | 43 | 3.72 µM | 82% | 0% | – | – | – | – | 0.0562 µM | –
Cc1cc(CN2CCCC(C)(c3cc(C(F)F)nc4ncnn34)C2)cc(Cl)n1 (centres unmarked) [Compound 28] | 16% | – | <5 | 10 | – | – | – | – | – | > 10 µM | 7.2% | 5.62 µM | –
